Experiments:
[1] = tested on: haemagglutination between sheep erythrocytes and S. saprophyticus bacteria (Mc 2 and Mc 194); assay: Inhibition of haemagglutination of sheep erythrocytes with Staphylococcus saprophyticus; type: cell-based; details: for minimal effective concentration: Staphylococcus saprophyticus, Erythrocyte, read-out: Minimum inhibitory con.; for Minimum inhibitory con.: Inhibition of haemagglutination, S. saprophyticus Mc 2 and Mc 194, 2 HU bacteria
Experimental: In the tests the bacteria S. saprophyticus strains, both isolated from urine from patents having urinary tract infection, were used. The bacteria were cultivated in tryptone broth over night, pelletized by means of centrifugation and washed twice with PBS, pH 7.2. Haemagglutination was performed using erythrocytes from sheep obtained from sheep blood and washed twice with 0.85 % saline.
In the haemagglutination-indication experiments microtitre plates (Limbo Sc. Comp. Inc) were used. 25 μl of bacterial suspension were titrated in PBS by two-step titre steps, 25 μl of 1% erythrocyte suspension being then added. The haemagglutination titre was determined after incubation of the plates for 2-4 hours in room temperature.
In the inhibition experiments serial dilutions of the relevant inhibitor (50 μl/well) and 25 μl of bacterial suspension diluted to contain 2 HU haemagglutinating units of bacteria were used. The plates were incubated for 30 minutes at 37° C., 25 μl of the erythrocyte suspension being then added to each well.

[2] = tested on: NK-cells activity (lymphocytes) against K-562 cells; assay: Inhibition of NK-cells activity (chromium release cytotoxicity of lymphocytes against K-562); type: cell-based, human; details: for % specific cytotoxicity: ratio 20:1
Experimental: Lymphocytes isolated from peripheral blood drained from normal donors have the ability of exerting a cytotoxic, (i.e. cell killing activity against certain types of cells in culture. In the instant example there is used a human leukemia cell line called K-562 as a target cell for such cytolytic activity.
Method: K-562 cells intracellularly labelled with radioactive chromium are incubated with effector cells (lymphocytes) for 4 hours at 37° C. The cytotoxic effect is measured as the quantity of isotope released in relation to remaining isotope in the target cells. For details see Malmstrom, P., Jonsson, Å, and Sjogren, H.O. "Countercurrent distribution of lymphocytes from human peripheral blood in an aqueous two-phase system. II. Separation into subsets of lymphocytes with distinctive functions". Cell Immunol. 53:51-64, 1980. For studying inhibiting substances effector cells (6×10^6 cells/ml) are preincubated with the respective oligosaccharides diluted in cultivating medium for half an hour at 37° C. After washing with centrifugation the effector cells are transferred directly to the target cells.

[3] = tested on: adhesion of S. saprophyticus to urinary epithelial cells; assay: Inhibition of adherence of S. saprophyticus to urinary epithelial cells; type: cell-based, Staphylococcus saprophyticus
Experimental: Cells from urinary epithelium were suspended in cell cultivation medium RPMI 1640 (Flow Ltd) to a concentration of 10^5 cells/ml.
Microorganisms of the type S. saprophyticus were suspended in RPMI 1640 to a concentration of 10^9 bacteria/ml. Oligosaccharides which were tested for their ability of preventing adhesion of S. saprophyticus to urinary epithelial cells were dissolved in RPMI 1640 to a concentration of 5 mg/ml. In the experiments 1 ml of the oligosaccharide solution was incubated with 0.1 ml bacterial suspension at 37° C. for 30 minutes. Urinary epithelial cells were incubated with the bacterial suspension incubated in advance as described above with oligosaccharide solution for 45 minutes at 37° C. As a control there was used a bacterial suspension preincubated with 1 ml RPMI 1640.
Incubated samples were filtrated through a 12μ filter and washed 3 times with PBS. The filter was pressed against microscope slides for a few seconds, the slides being then fixed in methanol for 10 minutes. The slides were dried in air and coloured with acridine orange for 2 minutes. The slides were washed, dried in air and studies in fluorescence microscope. The number of bacteria per cell was counted. In each experiment 50 cells were counted.

[4] = 0.3 mg/ml oligosaccharide, experiment 1 (without inhibitor 22.3)
[5] = 0.3 mg/ml oligosaccharide, experiment 2 (without inhibitor 32.0)
[6] = 1 mg/ml oligosaccharide, experiment 1 (without inhibitor 22.3)
[7] = 1 mg/ml oligosaccharide, experiment 2 (without inhibitor 32.0)
[8] = 3 mg/ml oligosaccharide, experiment 1 (without inhibitor 22.3)
[9] = 3 mg/ml oligosaccharide, experiment 2 (without inhibitor 32.0)

Molecule: CC(=O)NC1C(O)CC(OC2C(O)C(CO)OC(OC3C(CO)OC(O)C(O)C3O)C2O)(C(=O)O)OC1C(O)C(O)CO (stereo not drawn) [3'siallyl-lactose, α-NeuNAcp-(2-3)-β-Galp-(1-4)-Glc, reference compound]
- minimal effective concentration [1]: > 2500 µg/mL
- % specific cytotoxicity [2, 4]: 23.9%
- % specific cytotoxicity [2, 5]: 28.7%
- % specific cytotoxicity [2, 6]: 25.2%
- % specific cytotoxicity [2, 7]: 19.7%
- % specific cytotoxicity [2, 8]: 20.0%
- % specific cytotoxicity [2, 9]: 19.1%

Molecule: CC(=O)NC1C(O)CC(OCC2OC(OC3C(CO)OC(O)C(O)C3O)C(O)C(O)C2O)(C(=O)O)OC1C(O)C(O)CO (stereo not drawn) [6'siallyl-lactose, α-NeuNAcp-(2-6)-β-Galp-(1-4)-Glc, reference compound]
- minimal effective concentration [1]: > 2500 µg/mL
- % specific cytotoxicity [2, 4]: 21.3%
- % specific cytotoxicity [2, 5]: 20.2%
- % specific cytotoxicity [2, 6]: 15.8%
- % specific cytotoxicity [2, 7]: 17.2%
- % specific cytotoxicity [2, 8]: 9.6%
- % specific cytotoxicity [2, 9]: 15.1%

Molecule: CC(=O)N[C@H]1[C@H](O[C@@H]2[C@@H](OC[C@H]3O[C@@H](O[C@H]4[C@H](O)[C@@H](NC(C)=O)C(O)O[C@@H]4CO)[C@@H](O)[C@@H](O[C@H]4O[C@H](CO)[C@@H](O)[C@H](O)[C@@H]4O[C@@H]4O[C@H](CO)[C@@H](O[C@@H]5O[C@H](CO)[C@H](O)[C@H](O)[C@H]5O)[C@H](O)[C@H]4NC(C)=O)[C@@H]3O)O[C@H](CO)[C@@H](O)[C@@H]2O)O[C@H](CO)[C@@H](O[C@@H]2O[C@H](CO)[C@H](O)[C@H](O)[C@H]2O)[C@@H]1O (stereo partly drawn) [GM1 -octa]
- minimal effective concentration [1]: 200 µg/mL
- % specific cytotoxicity [2, 4]: 16.1%
- % specific cytotoxicity [2, 5]: 28.0%
- % specific cytotoxicity [2, 6]: 11.3%
- % specific cytotoxicity [2, 7]: 25.0%
- % specific cytotoxicity [2, 8]: 1.7%
- % specific cytotoxicity [2, 9]: 12.8%
- cytolytic effect after preincubation with the oligosaccharides ([2]; in concentrations down to 0.3 mg/ml): inhibited

Molecule: OC[C@H]1O[C@H](O[C@H]2[C@@H](O)[C@@H](CO)OC(O)[C@@H]2O)[C@H](O)[C@@H](O)[C@H]1O (stereo partly drawn) [α-Galp-(1-3)-Gal]
- minimal effective concentration [1]: > 2500 µg/mL

Molecule: OC[C@H]1O[C@H](O[C@@H]2[C@H](O)[C@@H](O)C(O)O[C@@H]2CO)[C@H](O)[C@@H](O)[C@H]1O (stereo partly drawn) [α-Galp-(1-4)-Gal]
- minimal effective concentration [1]: > 2500 µg/mL

Molecule: OC[C@H]1O[C@H](O[C@@H]2[C@H](O)[C@@H](O)[C@H](O[C@H]3[C@H](O)[C@@H](O)C(O)O[C@@H]3CO)O[C@@H]2CO)[C@H](O)[C@@H](O)[C@H]1O (stereo partly drawn) [α-Galp-(1-4)-β-Galp-(1-4)-Glc]
- minimal effective concentration [1]: > 2500 µg/mL

Molecule: CC(=O)N[C@H]1[C@H](O[C@@H]2[C@H](O)[C@@H](O)[C@H](O[C@H]3[C@H](O)[C@@H](O)C(O)O[C@@H]3CO)O[C@@H]2CO)O[C@H](CO)[C@@H](O[C@@H]2O[C@H](CO)[C@H](O)[C@H](O)[C@H]2O)[C@@H]1O (stereo partly drawn) [β-Gal-(1-4)-β--GNAc-(1-4)-β-Gal-(1-4)-Glc]
- reduction of the number of adhering bacteria ([3]; oligosaccharide 5 mg/ml, preincubated 30 min at 37° C., then 45 min with cells, vs control without oligosaccharides): ~96%

Molecule: CC(=O)N[C@H]1[C@H](O[C@H]2[C@@H](O)[C@@H](CO)O[C@H](O[C@@H]3[C@H](O)[C@@H](O)[C@H](O[C@H]4[C@H](O)[C@@H](O)C(O)O[C@@H]4CO)O[C@@H]3CO)[C@@H]2O)O[C@H](CO)[C@H](O)[C@@H]1O (stereo partly drawn) [β-GalNAcp-(1-3)-α-Galp-(1-4)-β-Galp-(1-4)-Glc]
- minimal effective concentration [1]: > 2500 µg/mL

Molecule: OC[C@H]1O[C@@H](O[C@H]2[C@@H](O)[C@@H](CO)OC(O)[C@@H]2O)[C@H](O)[C@@H](O)[C@H]1O (stereo partly drawn) [β-Galp-(1-3)-Gal]
- minimal effective concentration [1]: > 2500 µg/mL

Molecule: CC(=O)N[C@H]1[C@H](O[C@H]2[C@@H](O)[C@@H](CO)O[C@@H](O[C@H]3[C@H](O)[C@@H](O)C(O)O[C@@H]3CO)[C@@H]2O)O[C@H](CO)[C@@H](O)[C@@H]1O[C@@H]1O[C@H](CO)[C@H](O)[C@H](O)[C@H]1O (stereo partly drawn) [β-Galp-(1-3)-β-GNAcp-(1-3)-β-Galp-(1-4)-Glc]
- minimal effective concentration [1]: > 2500 µg/mL

Molecule: OC[C@H]1O[C@@H](O[C@H]2[C@@H](O)[C@@H](CO)O[C@@H](O[C@H]3[C@@H](O)[C@@H](CO)OC(O)[C@@H]3O)[C@@H]2O)[C@H](O)[C@@H](O)[C@H]1O (stereo partly drawn) [β-Galp-(1-3)-β-Galp-(1-3)-Gal]
- minimal effective concentration [1]: > 2500 µg/mL

Molecule: OC[C@H]1O[C@@H](O[C@H]2[C@H](O)[C@@H](O)C(O)O[C@@H]2CO)[C@H](O)[C@@H](O)[C@H]1O (stereo partly drawn) [β-Galp-(1-4)-Glc, reference compound]
- minimal effective concentration [1]: > 2500 µg/mL
- reduction of the number of adhering bacteria (in words) ([3]; oligosaccharide 5 mg/ml, in comparison with the control test without oligosaccharides): did not reduce the number of adhering bacteria

Molecule: CO[C@@H]1O[C@H](CO)[C@@H](O[C@@H]2O[C@H](CO)[C@H](O)[C@H](O)[C@H]2O)[C@H](O)[C@H]1NC(C)=O [β-Galp-(1-4)-β-GNAcp-(1-0)-CH3]
- minimal effective concentration [1]: 250 µg/mL
- inhibition at 5000 µg/mL ([3]; Staphylococcus saprophyticus, Epithelial cell, 0.75 h, read-out: reduction of the number of adhering bacteria): ~95%

Molecule: CC(=O)N[C@H]1[C@H](O[C@H]2[C@@H](O)[C@@H](CO)O[C@@H](O[C@H]3[C@H](O)[C@@H](O)C(O)O[C@@H]3CO)[C@@H]2O)O[C@H](CO)[C@@H](O[C@@H]2O[C@H](CO)[C@H](O)[C@H](O)[C@H]2O)[C@@H]1O (stereo partly drawn) [β-Galp-(1-4)-β-GNAcp-(1-3)-β-Galp-(1-4)-Glc]
- minimal effective concentration [1]: 250 µg/mL

Molecule: OC[C@H]1O[C@@H](OC[C@H]2OC(O)[C@H](O)[C@@H](O)[C@H]2O)[C@H](O)[C@@H](O)[C@H]1O (stereo partly drawn) [β-Galp-(1-6)-Gal]
- minimal effective concentration [1]: > 2500 µg/mL

Molecule: Asialotransferrin (human): Asialotransferrin (human)
- Minimum inhibitory con. [1]: 250 µg/mL

Molecule: Transferrin (human): Transferrin (human)
- Minimum inhibitory con. [1]: > 2500 µg/mL

B1: Fetuin: Fetuin (protein, UniProt P12763 19-359, looked up)
Alpha-2-HS-glycoprotein: IPLDPVAGYKEPACDDPDTEQAALAAVDYINKHLPRGYKHTLNQIDSVKVWPRRPTGEVYDIEIDTLETTCHVLDPTPLANCSVRQQTQHAVEGDCDIHVLKQDGQFSVLFTKCDSSPDSAEDVRKLCPDCPLLAPLNDSRVVHAVEVALATFNAESNGSYLQLVEISRAQFVPLPVSVSVEFAVAATDCIAKEVVDPTKCNLLAEKQYGFCKGSVIQKALGGEDVRVTCTLFQTQPVIPQPQPDGAEAEAPSAVPDAAGPTPSAAGPPVASVVVGPSVVAVPLPLHRAHYDLRHTFSGVASVESSSGEAFHVGKTPIVGQPSIPGGPVRLCPGRIRYFKI
- Minimum inhibitory con. [1]: > 2500 µg/mL

From patent publication US4851338A, “Method for diagnosing the presence of bacteria” (Biocarb AB, priority 1982, dated 1989)
